# Laboratory results reported in patent publication US8753875B2, “Compositions and means for diagnosing microbial infections” (priority 2007, dated 2014).
# Like-named read-outs stand apart in the source and are kept apart here.
# Tests used:
# Candida spp. = assay: Growth on Flexicult plate, susceptibility/resistance to the five antibiotics (FIG. 4, Table A); type: cell-based
# How it was run: (§1)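 Read-out is growth versus control agar per antibiotic field, each organism scored separately; growth means resistant. Agar contained one of five antimicrobials at breakpoint concentration. Few single colonies on nitrofurantoin or mecillinam were treated as persisters, not resistance.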
# Citrobacter spp. = assay: as above; type: cell-based
# How it was run: as §1
# E. coli [1] = assay: as above; type: cell-based
# How it was run: as §1
# E. faecalis [2] = assay: as above; type: cell-based
# How it was run: as §1
# E. faecium [3] = assay: as above; type: cell-based
# How it was run: as §1
# Enterobacter spp = assay: as above; type: cell-based
# How it was run: as §1
# Klebsiella spp. = assay: as above; type: cell-based
# How it was run: as §1
# Morganella spp. = assay: as above; type: cell-based
# How it was run: as §1
# P. aureginosa = assay: as above; type: cell-based
# How it was run: as §1
# P. vulgaris [4] = assay: as above; type: cell-based
# How it was run: as §1
# Proteus mirabilis = assay: as above; type: cell-based
# How it was run: as §1
# S. saprophyticus [5] = assay: as above; type: cell-based
# How it was run: as §1
# E. coli [6] = assay: Growth of E. coli in antibiotic compartments of the platform (FIG. 3); type: cell-based; settings: illustrated E. coli of FIG. 3
# Source text: The photos show growth of E. coli at different quantities of bacteria/ml urine.
# [7] = test system: Staphylococcus saprophyticus ATCC 49907; settings: 32 mg/l nitrofurantoin; 10^5 CFU/ml suspension, 18-24 hours at 37° C.
# E. coli [8] = test system: E. coli; design: key: Susceptible = S; Resistant = R; settings: cited from earlier work
# Citrobacter = test system: Citrobacter; design: key: Susceptible = S; Resistant = R; settings: cited from earlier work
# Klebsiella = settings: cited from earlier work
# Enterobacter = settings: cited from earlier work
# P. mirabilis = settings: cited from earlier work
# P. vulgaris [9] = test system: P. vulgaris; design: key: Susceptible = S; Resistant = R; settings: cited from earlier work
# Morganella = test system: Morganella; design: key: Susceptible = S; Resistant = R; settings: cited from earlier work
# S. saprophyticus [10] = test system: S. saprophyticus; design: key: Susceptible = S; Resistant = R; settings: cited from earlier work
# E. faecalis [11] = test system: E. faecalis; design: key: Susceptible = S; Resistant = R; settings: cited from earlier work
# E. faecium [12] = test system: E. faecium; design: key: Susceptible = S; Resistant = R; settings: cited from earlier work
# S. agalactiae = test system: S. agalactiae; design: key: Susceptible = S; Resistant = R; settings: cited from earlier work
# Pseud. Aeruginosa = test system: Pseud. Aeruginosa; design: key: Susceptible = S; Resistant = R; settings: cited from earlier work
# Candida sp. = test system: Candida sp.; design: key: Susceptible = S; Resistant = R; settings: cited from earlier work
# E. coli [13] = settings: cited from earlier work
# E. coli [14] = settings: 1142 E. coli outpatient urinary isolates, USA and Canada; cited from earlier work
compound,measurement,setting,value
"O=C1CN(N=Cc2ccc([N+](=O)[O-])o2)C(=O)N1 [Nitrofurantoin, 1-[(5-nitro-2-furyl)methylideneamino]imidazolidine-2,4-dione]",Susceptibility = S or Resistance = R,Candida spp.,R
same,Susceptibility = S or Resistance = R,Citrobacter spp.,S
same,Susceptibility = S or Resistance = R,E. coli [1],S
same,Susceptibility = S or Resistance = R,E. faecalis [2],R
same,Susceptibility = S or Resistance = R,E. faecium [3],R
same,Susceptibility = S or Resistance = R,Enterobacter spp,S
same,Susceptibility = S or Resistance = R,Klebsiella spp.,R
same,Susceptibility = S or Resistance = R,Morganella spp.,R/S
same,Susceptibility = S or Resistance = R,P. aureginosa,R
same,Susceptibility = S or Resistance = R,P. vulgaris [4],R/S
same,Susceptibility = S or Resistance = R,Proteus mirabilis,S
same,Susceptibility = S or Resistance = R,S. saprophyticus [5],S
same,resistant or susceptible (growth in antibiotic compartment),E. coli [6],susceptible
same,reduction in the growth of/numbers of colonies formed,[7],at least 4 log CFU/ml
same,Normal susceptibility/resistance,E. coli [8],S
same,Normal susceptibility/resistance,Citrobacter,S
same,Normal susceptibility/resistance,Klebsiella,S/R
same,Normal susceptibility/resistance,Enterobacter,S/R
same,Normal susceptibility/resistance,P. mirabilis,S/R
same,Normal susceptibility/resistance,P. vulgaris [9],R
same,Normal susceptibility/resistance,Morganella,R
same,Normal susceptibility/resistance,S. saprophyticus [10],S
same,Normal susceptibility/resistance,E. faecalis [11],S
same,Normal susceptibility/resistance,E. faecium [12],S
same,Normal susceptibility/resistance,S. agalactiae,S
same,Normal susceptibility/resistance,Pseud. Aeruginosa,R
same,Normal susceptibility/resistance,Candida sp.,R
same,Antimicrobial resistance of E. coli (resistance in percent),"E. coli [13]; Austria, n 126",0.8%
same,Antimicrobial resistance of E. coli (resistance in percent),"E. coli [13]; Belgium, n 137",0.7%
same,Antimicrobial resistance of E. coli (resistance in percent),"E. coli [13]; Canada, n 166",1.2%
same,Antimicrobial resistance of E. coli (resistance in percent),"E. coli [13]; Denmark, n 85",1.2%
same,Antimicrobial resistance of E. coli (resistance in percent),"E. coli [13]; Finland, n 182",0.5%
same,Antimicrobial resistance of E. coli (resistance in percent),"E. coli [13]; France, n 199",1.0%
same,Antimicrobial resistance of E. coli (resistance in percent),"E. coli [13]; Germany, n 138",0.7%
same,Antimicrobial resistance of E. coli (resistance in percent),"E. coli [13]; Greece, n 132",3.0%
same,Antimicrobial resistance of E. coli (resistance in percent),"E. coli [13]; Ireland, n 154",0%
same,Antimicrobial resistance of E. coli (resistance in percent),"E. coli [13]; Luxembourg, n 24",4.2%
same,Antimicrobial resistance of E. coli (resistance in percent),"E. coli [13]; Norway, n 168",0%
same,Antimicrobial resistance of E. coli (resistance in percent),"E. coli [13]; Portugal, n 86",5.8%
same,Antimicrobial resistance of E. coli (resistance in percent),"E. coli [13]; Spain, n 191",4.2%
same,Antimicrobial resistance of E. coli (resistance in percent),"E. coli [13]; Sweden, n 193",0%
same,Antimicrobial resistance of E. coli (resistance in percent),"E. coli [13]; Switzerland, n 122",0.8%
same,Antimicrobial resistance of E. coli (resistance in percent),"E. coli [13]; The Netherlands, n 195",1.0%
same,Antimicrobial resistance of E. coli (resistance in percent),"E. coli [13]; Total, n 2478",1.2%
same,Antimicrobial resistance of E. coli (resistance in percent),"E. coli [13]; United Kingdom, n 180",0%
same,Overall resistance in E. coli,E. coli [14],1.1%
